The values below come from ChEMBL document CHEMBL5518240 (J Med Chem, 2024).

Active and inactive are the calls of the source. No cut-off for these calls is given here.

In general, Emax refers to the maximal effect, on the per cent scale that the assay sets. The term IC50 denotes the concentration that inhibits the measured activity by half.

Series [1] deals with T1, Protein cereblon/CREB-binding protein (Homo sapiens, UniProt Q92793+Q96SW2). The experiment in a line: PROTAC activity at CBP/CRBN in AR positive human VCaP cells assessed as maximal protein degradation at 1.4 nM incubated for 4 hrs by Western blot analysis relative to control. It counts as cell-based.
Series [2] has as its target T1, Protein cereblon/CREB-binding protein. The series can be described thus: PROTAC activity at CBP/CRBN in AR positive human VCaP cells assessed as maximal protein degradation at 37 nM incubated for 4 hrs by Western blot analysis relative to control. The series is classed as cell-based.
Series [3] has the same target. The series can be described thus: PROTAC activity at CBP/CRBN in AR positive human VCaP cells assessed as maximal protein degradation at 1000 nM incubated for 4 hrs by Western blot analysis relative to control. It counts as cell-based.
Series [4] deals with T2, Protein cereblon/Histone acetyltransferase p300 (Homo sapiens, UniProt Q09472+Q96SW2). The series can be described thus: PROTAC activity at p300/CRBN in AR positive human VCaP cells assessed as maximal protein degradation at 0.46 nM incubated for 4 hrs by Western blot analysis relative to control. It counts as cell-based. In general terms: A western blot detects proteins with antibodies after separation by electrophoresis.

The target of series [5] is T2, Protein cereblon/Histone acetyltransferase p300. The series can be described thus: PROTAC activity at p300/CRBN in AR positive human VCaP cells assessed as maximal protein degradation at 12.3 nM incubated for 4 hrs by Western blot analysis relative to control. The series is classed as cell-based.
Series [6] has the same target. The series can be described thus: PROTAC activity at p300/CRBN in AR positive human VCaP cells assessed as maximal protein degradation at 37 nM incubated for 4 hrs by Western blot analysis relative to control. It counts as cell-based.
Series [7] has the same target. The experiment in a line: PROTAC activity at p300/CRBN in AR positive human VCaP cells assessed as maximal protein degradation at 111 nM incubated for 4 hrs by Western blot analysis relative to control. The series is classed as cell-based.
Series [8] deals with T1, Protein cereblon/CREB-binding protein. The experiment in a line: PROTAC activity at CBP/CRBN in human LNCaP cells assessed as maximal protein degradation at 1 uM incubated for 4 hrs by Western blot analysis relative to control. The series is classed as cell-based.
For series [9], the system named is VCaP. The series can be described thus: Antiproliferative activity against AR positive human VCaP cells assessed inhibition of cell growth measured after 4 days by CellTiter-Glo Luminescent cell viability assay. The series is classed as functional, cell-based. The conditions noted are these: 96 h. (ATP-based viability assays read luminescence as a measure of living cells.)

The subject of series [10] is VCaP. The series can be described thus: Potency index, ratio of ARV-110 IC50 to test compound IC50 for antiproliferative activity against AR positive human VCaP cells assessed inhibition of cell growth measured after 4 days by CellTiter-Glo Luminescent cell viability assay. The following applies: time 4 day. It counts as functional.
The test system of series [11] is CWR22R. The series can be described thus: Effect on other proteins on global level in human 22Rv1 cells at 100 nM incubated for 4 hrs by multiplexed quantitative proteomics analysis relative to control. The series is classed as functional, cell-based.
Series [12] deals with VCaP. The experiment in a line: Reduction in AR gene expression in AR positive human VCaP cells assessed as reduction in mRNA level measured after 6 hrs by qRT-PCT analysis relative to control. It counts as functional, cell-based. The conditions noted are these: dose 0.1-1000 nM.
In series [13] the test system is CWR22R. The series can be described thus: Reduction in AR gene expression in AR positive human 22Rv1 cells assessed as reduction in mRNA level measured after 6 hrs by qRT-PCT analysis relative to control. It counts as functional, cell-based. The following applies: dose 0.1-1000 nM.
Series [14] relates to LNCaP. The series can be described thus: Reduction in KLK3 gene expression in AR positive human LNCaP cells assessed as reduction in mRNA level measured after 6 hrs by qRT-PCT analysis relative to control. The following applies: dose 0.1-1000 nM. It counts as functional, cell-based.
Series [15] relates to CWR22R. The experiment in a line: Reduction in KLK3 gene expression in AR positive human 22Rv1 cells assessed as reduction in mRNA level measured after 6 hrs by qRT-PCT analysis relative to control. The series is classed as functional, cell-based. The following applies: dose 0.1-1000 nM.
Series [16] relates to CWR22R. The experiment in a line: Reduction in c-Myc gene expression in AR positive human 22Rv1 cells assessed as reduction in mRNA level measured after 6 hrs by qRT-PCT analysis relative to control. It counts as functional, cell-based. The following applies: dose 0.1-1000 nM.
The target in series [17] is T1, Protein cereblon/CREB-binding protein. The experiment in a line: In vivo PROTAC activity at CBP/CRBN in human VCaP cells xenografted in SCID mouse assessed as reduction in CBP protein at 1 mg/kg, po measured after 24 hrs. It counts as functional, organism-based. Set-up: scale not given: the % may be the effect or the level left. A general note: In xenograft studies the graft and the host belong to different species.

The target is the same in series [18]. The series can be described thus: In vivo PROTAC activity at p300/CRBN in human VCaP cells xenografted in CB17 SCID mouse assessed as reduction in CBP protein at 3 mg/kg, po measured after 24 hrs. It counts as functional, organism-based. Set-up: scale not given: the % may be the effect or the level left.
Series [19] has the same target. The experiment in a line: In vivo PROTAC activity at p300/CRBN in human VCaP cells xenografted in CB17 SCID mouse assessed as reduction in CBP protein at 1 mg/kg, po measured after 3 hrs. It counts as functional, organism-based. Also on record: scale not given: the % may be the effect or the level left.
The target is the same in series [20]. The series can be described thus: In vivo PROTAC activity at p300/CRBN in human VCaP cells xenografted in CB17 SCID mouse assessed as reduction in CBP protein at 1 mg/kg, po measured after 24 hrs. Also on record: scale not given: the % may be the effect or the level left. It counts as functional, organism-based.
Series [21] is described as follows: Plasma concentration in CB17 SCID mouse xenografted with human VCaP cells at 1 mg/kg, po measured after 24 hrs by LC-MS/MS analysis. It counts as ADME, organism-based.
Series [22] concerns VCaP. The experiment in a line: Antitumor activity against human VCaP cells xenografted in CB17 SCID mouse model assessed as tumor growth inhibition at 0.3 mg/kg, po qd scheduled 5 days in a week measured on day 63. It counts as functional. The conditions noted are these: 1512 h, time 63 day, read-out: TGI.
Series [23] deals with VCaP. The series can be described thus: Antitumor activity against human VCaP cells xenografted in CB17 SCID mouse model assessed as tumor growth inhibition at 1 mg/kg, po qod scheduled 5 days in a week measured on day 63. It counts as functional. The conditions noted are these: 1512 h, time 63 day, read-out: TGI.

T2 sequence (Q09472 2-2414 limits assumed): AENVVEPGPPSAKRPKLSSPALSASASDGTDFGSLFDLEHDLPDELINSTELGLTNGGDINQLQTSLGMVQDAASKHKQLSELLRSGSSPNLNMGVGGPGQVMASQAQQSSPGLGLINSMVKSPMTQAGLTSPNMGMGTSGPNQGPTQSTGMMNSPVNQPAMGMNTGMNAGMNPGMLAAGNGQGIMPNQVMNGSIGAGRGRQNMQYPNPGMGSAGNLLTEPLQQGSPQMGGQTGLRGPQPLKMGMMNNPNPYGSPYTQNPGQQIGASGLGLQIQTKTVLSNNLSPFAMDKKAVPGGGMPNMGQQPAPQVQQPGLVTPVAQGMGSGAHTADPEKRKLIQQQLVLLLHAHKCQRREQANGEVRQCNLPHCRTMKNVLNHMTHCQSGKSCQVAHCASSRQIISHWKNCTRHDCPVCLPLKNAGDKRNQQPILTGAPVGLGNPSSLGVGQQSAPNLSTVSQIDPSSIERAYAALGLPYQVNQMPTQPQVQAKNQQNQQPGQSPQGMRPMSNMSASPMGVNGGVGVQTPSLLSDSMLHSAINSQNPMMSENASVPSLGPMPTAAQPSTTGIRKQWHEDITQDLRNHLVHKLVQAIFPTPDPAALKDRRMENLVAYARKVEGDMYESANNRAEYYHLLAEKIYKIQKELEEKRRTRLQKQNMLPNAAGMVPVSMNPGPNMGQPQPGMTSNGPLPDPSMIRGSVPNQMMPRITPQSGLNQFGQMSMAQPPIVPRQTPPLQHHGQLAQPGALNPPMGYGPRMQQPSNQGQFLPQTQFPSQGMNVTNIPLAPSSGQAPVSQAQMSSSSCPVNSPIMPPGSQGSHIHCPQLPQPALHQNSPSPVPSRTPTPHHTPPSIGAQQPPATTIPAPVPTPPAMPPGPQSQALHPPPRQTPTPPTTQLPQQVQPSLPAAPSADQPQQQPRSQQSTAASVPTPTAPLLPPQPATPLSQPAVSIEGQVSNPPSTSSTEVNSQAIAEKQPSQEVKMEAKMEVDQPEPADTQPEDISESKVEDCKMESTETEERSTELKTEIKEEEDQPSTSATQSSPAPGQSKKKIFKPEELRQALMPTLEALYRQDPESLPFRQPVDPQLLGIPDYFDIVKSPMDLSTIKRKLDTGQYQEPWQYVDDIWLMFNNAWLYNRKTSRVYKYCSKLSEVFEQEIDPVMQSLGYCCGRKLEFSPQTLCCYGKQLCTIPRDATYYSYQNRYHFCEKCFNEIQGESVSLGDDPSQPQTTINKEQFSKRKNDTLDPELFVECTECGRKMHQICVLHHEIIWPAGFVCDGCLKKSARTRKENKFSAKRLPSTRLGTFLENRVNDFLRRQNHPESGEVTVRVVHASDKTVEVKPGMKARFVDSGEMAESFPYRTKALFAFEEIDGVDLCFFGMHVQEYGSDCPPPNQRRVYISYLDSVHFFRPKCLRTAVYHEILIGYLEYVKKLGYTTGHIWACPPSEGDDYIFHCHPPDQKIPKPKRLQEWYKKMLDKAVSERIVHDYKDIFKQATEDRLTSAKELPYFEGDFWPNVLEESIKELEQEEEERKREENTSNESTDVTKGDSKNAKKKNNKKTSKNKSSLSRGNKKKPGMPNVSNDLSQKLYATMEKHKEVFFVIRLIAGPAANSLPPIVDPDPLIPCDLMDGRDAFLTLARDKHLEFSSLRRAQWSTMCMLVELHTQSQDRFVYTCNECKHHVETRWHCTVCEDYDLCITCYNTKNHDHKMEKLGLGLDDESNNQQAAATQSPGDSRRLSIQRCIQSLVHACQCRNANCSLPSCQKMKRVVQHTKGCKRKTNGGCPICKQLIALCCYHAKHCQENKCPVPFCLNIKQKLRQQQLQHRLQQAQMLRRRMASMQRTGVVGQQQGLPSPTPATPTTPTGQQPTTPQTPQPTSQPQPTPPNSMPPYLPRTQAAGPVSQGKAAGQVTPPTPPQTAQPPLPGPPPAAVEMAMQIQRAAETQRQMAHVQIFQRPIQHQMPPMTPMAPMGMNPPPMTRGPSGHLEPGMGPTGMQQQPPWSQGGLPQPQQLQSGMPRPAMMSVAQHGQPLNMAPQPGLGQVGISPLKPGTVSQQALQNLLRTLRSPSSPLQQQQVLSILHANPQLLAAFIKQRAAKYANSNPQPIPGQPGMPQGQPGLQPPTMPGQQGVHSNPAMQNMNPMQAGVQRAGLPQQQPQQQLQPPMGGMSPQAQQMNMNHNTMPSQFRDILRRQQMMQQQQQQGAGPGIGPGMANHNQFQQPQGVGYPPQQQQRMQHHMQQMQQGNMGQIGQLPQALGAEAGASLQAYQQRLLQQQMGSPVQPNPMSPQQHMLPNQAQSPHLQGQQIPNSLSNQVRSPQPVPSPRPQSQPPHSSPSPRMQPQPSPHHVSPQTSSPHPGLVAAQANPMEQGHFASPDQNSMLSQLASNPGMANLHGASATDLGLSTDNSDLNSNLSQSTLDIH
T2 sequence (Q96SW2 whole entry partner): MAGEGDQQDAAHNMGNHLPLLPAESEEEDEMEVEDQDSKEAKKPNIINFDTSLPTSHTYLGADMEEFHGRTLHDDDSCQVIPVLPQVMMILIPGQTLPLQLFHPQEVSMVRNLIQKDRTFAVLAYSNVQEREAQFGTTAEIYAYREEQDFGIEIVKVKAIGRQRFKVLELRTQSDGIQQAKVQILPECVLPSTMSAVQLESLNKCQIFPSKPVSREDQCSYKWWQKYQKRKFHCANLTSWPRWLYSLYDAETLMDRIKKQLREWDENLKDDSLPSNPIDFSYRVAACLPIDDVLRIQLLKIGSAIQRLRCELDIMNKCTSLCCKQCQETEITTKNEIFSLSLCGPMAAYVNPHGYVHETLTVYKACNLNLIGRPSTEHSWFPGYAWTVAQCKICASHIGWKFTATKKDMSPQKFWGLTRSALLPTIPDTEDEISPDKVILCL

For `CC(=O)N1CCc2c(c(N3CCCc4cc(-c5cnn(C)c5)c(C(F)F)cc43)nn2[C@H]2CC[C@H](CN3CCN(c4ccc5c(c4)C(=O)N(C4CCC(=O)NC4=O)C5=O)CC3)CC2)C1` (stereo partly drawn), the Activity turned out to be 91% in [1]; 98% in series [2]; 51% in [3]; 80% in [4]; 100% in [5]; 100% in series [6]. Also, the Activity is 100% in series [7]; over 95% in [17]; over 95% in series [18]; over 95% in series [19]; over 95% in [20]. Further, the maximum response (Emax) in [8] was 90%. Inhibition in series [9] was half-maximal at 2 nM (IC50). The “Ratio IC50” value in series [10] is reported as over 50. Further, in [11], the outcome was inactive. The inhibition result in series [12], in series [13], in [14], in series [15] and in series [16] was “Dose-Dependent Effect” each time. In series [21], this molecule showed a concentration at 24 h of 16 ng/mL. Further, the inhibition in vivo at 0.3 mg/kg in series [22] is 73%. Further, the inhibition in vivo at 1 mg/kg in [23] was 71%.
